These results are taken from paper PMC12196476, “New Nitrogen-, Oxygen-, and Sulfur-Containing Heterocyclic Compounds as Anti-Colon Cancer Agents: Synthesis, Multitargeted Evaluations, Molecular Docking Simulations and ADMET Predictions” (Pharmaceuticals, 2025).

Assay [1] has as its system LoVo colon carcinoma cells. Briefly: Cell viability, LDH release assay, LoVo. As to conditions: Homo sapiens, LoVo, 48 h.
For another assay, the target named is PDK-1 (Homo sapiens, UniProt Q15118). Briefly: In vitro PDK-1 inhibition assay (Kinase-Glo luminescent kinase kit). In kind it is biochemical.
Chain of PDK-1 (Q15118 29-436): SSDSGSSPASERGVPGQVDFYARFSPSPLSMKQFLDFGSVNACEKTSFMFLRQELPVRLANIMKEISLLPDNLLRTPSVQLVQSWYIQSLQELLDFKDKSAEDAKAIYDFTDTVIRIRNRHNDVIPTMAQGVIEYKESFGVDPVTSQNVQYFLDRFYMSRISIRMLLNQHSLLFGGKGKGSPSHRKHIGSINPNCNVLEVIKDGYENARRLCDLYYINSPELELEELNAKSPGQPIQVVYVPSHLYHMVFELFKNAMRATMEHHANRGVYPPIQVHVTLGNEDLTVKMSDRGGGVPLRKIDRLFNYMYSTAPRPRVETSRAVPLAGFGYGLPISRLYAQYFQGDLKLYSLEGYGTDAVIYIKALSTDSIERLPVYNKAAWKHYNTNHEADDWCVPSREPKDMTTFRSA

What is called IC50 is the concentration that inhibits the measured activity by half. As a reminder, the inhibition is the change of the read-out against control, counted positive when it falls. With `COc1cc(/C=N/c2ncnc3sc4c(c23)CCCC4)cc(OC)c1OC` [Compound 3d, (E)-N-(5,6,7,8-Tetrahydrobenzo[4,5]thieno[2,3-d]pyrimidin-4-yl)-1-(3,4,5-trimethoxyphenyl)methanimine], the viability at 100 µg/mL in assay [1] (read-out: Mean % of viable cells ± SD, LoVo, 100 µg/mL, 48 h, LDH release assay) is under 29%. Further, the IC50 in assay [1] (read-out: Mean IC50 Values in µM ± SD, LoVo cells) is 157 µM; at PDK-1 (three independent experiments, read-out: Mean IC50 µM ± SD, PDK-1), 305 ± 11.1 µM. Moreover, the inhibition at 100 µg/mL at PDK-1 (100 µg/mL, three replicates, read-out: Mean Inhibition Percent ± SD, PDK-1) worked out at 41.8 ± 3.39%.
